# ChEMBL document CHEMBL5050861 (2021)
# Assays:
# [1] = Inhibition of recombinant mouse GALK1 using ATP as substrate incubated for 1 hr and measured by Kinase-Glo assay; conditions: read-out: IC50
# [2] = Inhibition of human GALK1 K252A/E253A double mutant; conditions: read-out: IC50
# Fibroblast = assay: Inhibition of human GALK1 K252A/E253A double mutant in human skin fibroblasts at 10 uM assessed as reduction in Gal-1P accumulation; type: cell-based
# [3] = Stability of compound in rat microsomes assessed as half-life; type: ADME, Microsome
# [4] = Kinetic aqueous solubility of the compound; type: physicochemical; conditions: buffer; read-out: Kinetic_solubility
# [5] = Stability of compound in rat liver microsomes assessed as half-life; type: ADME, Microsome
# [6] = Stability of compound in mouse liver microsomes assessed as half-life; type: ADME, Microsome
# [7] = Stability of compound in human liver microsomes assessed as half-life; type: ADME, Microsome
structure (smiles),measurement,setting,value
CC1=C(C(=O)NCc2cnn(C)c2)C(c2ccc(C)cc2Cl)N=C(Nc2nc3ccc(F)c(N)c3o2)N1 (stereo not drawn),IC50,[1],690 nM
same,IC50,[2],14 nM
same,inhibition,Fibroblast,100%
same,half-life,[3],17.1 min
same,solubility kinetic,[4],1.27 µg/mL
same,half-life,[5],16 min
same,half-life,[6],13 min
same,t1/2,[7],47 min
